This note sets out measurements from ChEMBL document CHEMBL1201862, “PubChem BioAssay data set” (2004).

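Step 1: Grow cells in 96-well plates. Step 2: Expose to compound for 48 hours at 5 concentrations. Step 3: Interpolate endpoints linearly; if unreached, use highest concentration. GI50 = concentration required for 50% inhibition of growth.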 Calls of active or inactive are those of the source. Rule as the data show it: active = GI50 up to about 1.1 µM and inactive = higher.

Test systems include HCT-116; COLO 205; SK-MEL-28; HCT-15; ACHN; OVCAR-3; DMS-114; EKVX; U-251; K562; SF-268; SK-MEL-2; UACC-257; SW-620; SNB-19; UACC-62; RXF 393; PC-3; MDA-MB-435; HOP-92.
Common to all, as to test: DTP human tumour cell line panel, 48 h

Take `CCCN(CCC)c1c([N+](=O)[O-])cc(C(N)=O)cc1[N+](=O)[O-]`: the GI50 with HCT-116 is > 100 µM (inactive); in the assay on COLO 205 it was 86.9 µM (inactive); with SK-MEL-28 it was > 100 µM (inactive); with HCT-15 it was 62.2 µM; with ACHN it was > 100 µM (inactive); in the assay with OVCAR-3, 78 µM (inactive). The GI50 was 71.9 µM (inactive) in the assay on DMS-114; 36.3 µM (inactive) in the assay on EKVX; 69 µM (inactive) in the assay with U-251; 31.1 µM (inactive) with K562; > 100 µM (inactive) with SF-268; 74.5 µM (inactive) in the assay on SK-MEL-2. Moreover, in the assay with UACC-257, the GI50 was 49.4 µM (inactive).
For the compound `CC12CCC(=O)N1c1ccc([N+](=O)[O-])cc1N2` (stereo unspecified), the GI50 in the assay on HCT-116 is > 100 µM (inactive); in the assay with COLO 205, > 100 µM (inactive); in the assay with SK-MEL-28 it was > 100 µM (inactive); in the assay on SW-620 it was > 100 µM (inactive); in the assay with HCT-15 it was > 100 µM; in the assay with SNB-19, > 100 µM (inactive). Besides, the GI50 with ACHN, with OVCAR-3, in the assay with DMS-114, in the assay on EKVX, in the assay with U-251 and in the assay with K562 was > 100 µM (inactive) in each case. Further, the GI50 with SF-268, in the assay on SK-MEL-2, with UACC-257, with UACC-62 and in the assay with RXF 393 was > 100 µM (inactive) each time.
Take `O=C(NCC#CCO)C(F)(F)F`: the GI50 is > 100 µM (inactive) in the assay with HCT-116; > 100 µM (inactive) in the assay with SK-MEL-28; > 100 µM (inactive) in the assay with SW-620; > 100 µM in the assay with HCT-15; > 100 µM (inactive) in the assay on SNB-19; > 100 µM (inactive) in the assay with ACHN. Further, the GI50 in the assay with DMS-114, in the assay with EKVX, in the assay on U-251, with SF-268, with SK-MEL-2 and in the assay on UACC-257 was > 100 µM (inactive) throughout. The GI50 in the assay on UACC-62 and with RXF 393 was > 100 µM (inactive) in each case.
Regarding `O=C(N/N=C\c1ccc([N+](=O)[O-])cc1)Nc1cccc2ccccc12`, the GI50 with HCT-116 is 28.5 µM (inactive); in the assay on COLO 205 it was > 100 µM (inactive); in the assay on SK-MEL-28, > 100 µM (inactive); in the assay on SW-620, > 100 µM (inactive); with HCT-15, > 50.5 µM; in the assay with SNB-19, 5.07 µM (inactive). Also, the GI50 in the assay with ACHN is 27.5 µM (inactive); with PC-3 it was 23 µM (inactive); with OVCAR-3, > 37.8 µM (inactive); in the assay on EKVX, 29.1 µM (inactive); in the assay with U-251, 4.79 µM (inactive); in the assay with K562, > 100 µM (inactive). Moreover, the GI50 in the assay on SF-268 is 4.88 µM (inactive); in the assay on MDA-MB-435, > 100 µM (inactive); in the assay with HOP-92, 6.15 µM (inactive); with SK-MEL-2, 5.55 µM (inactive); with UACC-257, > 79.3 µM (inactive); with UACC-62, 13.2 µM (inactive). The GI50 with RXF 393 is 11 µM (inactive).
Consider `O=C1OC(C2Cc3ccccc3C2=O)c2ccccc21` (stereo unspecified), for which the GI50 is > 100 µM (inactive) in the assay with HCT-116; > 100 µM (inactive) in the assay on COLO 205; > 100 µM (inactive) in the assay with SK-MEL-28; > 100 µM (inactive) in the assay with SW-620; > 100 µM with HCT-15; > 100 µM (inactive) with SNB-19. The GI50 in the assay with ACHN, in the assay on PC-3, in the assay on OVCAR-3, in the assay on EKVX, with U-251 and in the assay on K562 was > 100 µM (inactive) in each case. For the same compound, the GI50 with SF-268, with MDA-MB-435, in the assay with HOP-92, in the assay with SK-MEL-2, in the assay on UACC-257 and in the assay on UACC-62 was > 100 µM (inactive) in each case. The GI50 in the assay with RXF 393 was > 100 µM (inactive).
Turning to `COc1cc(-c2coc3c(OC)c(OC4OC(CO)C(O)C(O)C4O)c(OC)cc3c2=O)cc(OC)c1C` (stereo unspecified), the GI50 is 1.69 µM (inactive) with HCT-116; 17.9 µM (inactive) in the assay on COLO 205; 4.8 µM (inactive) in the assay with SK-MEL-28; 6.1 µM (inactive) in the assay on SW-620; 3.66 µM with HCT-15; 6.81 µM (inactive) in the assay with SNB-19. Further, the GI50 in the assay on ACHN is 7.55 µM (inactive); in the assay on PC-3, 7.01 µM (inactive); in the assay on OVCAR-3, 7.26 µM (inactive); with EKVX, 11.8 µM (inactive); in the assay with U-251 it was 3.7 µM (inactive); with K562, 7.29 µM (inactive). Further, the GI50 with SF-268 was 4.84 µM (inactive); in the assay with MDA-MB-435, 3.85 µM (inactive); in the assay with HOP-92, 17.7 µM (inactive); in the assay with SK-MEL-2 it was 16.1 µM (inactive); in the assay with UACC-257, 14.2 µM (inactive); with UACC-62, 4.42 µM (inactive). Further, the GI50 with RXF 393 is 2.56 µM (inactive).
Turning to `O=S(=O)(O)c1ccc2c(/N=N/c3ccc(/N=N/c4ccccc4)cc3)c(O)c(S(=O)(=O)O)cc2c1`, the GI50 was 50.1 µM (inactive) in the assay on HCT-116; > 100 µM (inactive) with COLO 205; > 100 µM (inactive) in the assay on SK-MEL-28; > 100 µM (inactive) in the assay on SW-620; > 100 µM in the assay with HCT-15; > 100 µM (inactive) with SNB-19. The GI50 in the assay with ACHN, with PC-3, with OVCAR-3, in the assay on EKVX, in the assay on U-251 and in the assay with K562 was > 100 µM (inactive) each time. In addition, the GI50 with SF-268, in the assay on MDA-MB-435, in the assay with HOP-92, in the assay with SK-MEL-2, in the assay on UACC-257 and in the assay on UACC-62 was > 100 µM (inactive) in each case. Moreover, the GI50 with RXF 393 was > 100 µM (inactive).
For the compound `c1ccc(-c2cc(C3CO3)c3ccccc3n2)cc1` (stereo unspecified), the GI50 with HCT-116 is 16.5 µM (inactive); in the assay on COLO 205, 19.7 µM (inactive); in the assay with SK-MEL-28, 38.5 µM (inactive); in the assay on SW-620 it was 27.9 µM (inactive); in the assay with HCT-15, 19.5 µM; with SNB-19 it was 29.1 µM (inactive). Moreover, the GI50 was 18.4 µM (inactive) in the assay with ACHN; 19.5 µM (inactive) in the assay with PC-3; 17.9 µM (inactive) with OVCAR-3; 18.2 µM (inactive) with EKVX; 16 µM (inactive) in the assay on U-251; 34.4 µM (inactive) in the assay with K562. Moreover, the GI50 in the assay on SF-268 was 20 µM (inactive); in the assay with MDA-MB-435, 18.9 µM (inactive); in the assay with HOP-92, 20 µM (inactive); in the assay with SK-MEL-2, 18.4 µM (inactive); in the assay with UACC-257, 19.1 µM (inactive); with UACC-62, 18.5 µM (inactive). Moreover, the GI50 with RXF 393 is 13.5 µM (inactive).
Turning to `CC(C)Oc1c(-c2ccc(F)cc2)c(O)c2c3c1oc(=O)n3C=CC2C` (stereo unspecified), the GI50 with HCT-116 was 12.9 µM (inactive); with COLO 205, 16 µM (inactive); in the assay with SK-MEL-28, 15.7 µM (inactive); with SW-620, 14.3 µM (inactive); in the assay with HCT-15, 14.9 µM; in the assay with SNB-19, 15.8 µM (inactive). In addition, the GI50 with ACHN is 14.5 µM (inactive); in the assay on PC-3, 7.05 µM (inactive); in the assay with OVCAR-3 it was 14.4 µM (inactive); in the assay on EKVX, 14.3 µM (inactive); in the assay on U-251, 15.5 µM (inactive); with K562, 6.59 µM (inactive). Besides, the GI50 in the assay on SF-268 is 17.3 µM (inactive); in the assay with MDA-MB-435, 17.9 µM (inactive); in the assay with HOP-92, 13.9 µM (inactive); with SK-MEL-2, 17.8 µM (inactive); in the assay on UACC-257 it was 13.2 µM (inactive); with UACC-62 it was 14.6 µM (inactive). In addition, the GI50 in the assay on RXF 393 is 14 µM (inactive).
As to `C=CC(c1ccccc1)[C@@]1(OC(C)=O)C(=O)C(=O)OC1C1COC(C)(C)O1` (stereo partly specified), the GI50 with HCT-116 is 11.1 µM (inactive); in the assay on COLO 205 it was 8.26 µM (inactive); in the assay on SK-MEL-28 it was 8.32 µM (inactive); in the assay on SW-620, 8.13 µM (inactive); with HCT-15 it was 9.62 µM; in the assay with SNB-19, 19.5 µM (inactive). For the same compound, the GI50 is 5.78 µM (inactive) in the assay with ACHN; 10.9 µM (inactive) in the assay with PC-3; 10.7 µM (inactive) in the assay on OVCAR-3; 17.9 µM (inactive) in the assay on EKVX; 14.3 µM (inactive) with U-251; 3.94 µM (inactive) in the assay on K562. Moreover, the GI50 in the assay on SF-268 is 24.2 µM (inactive); in the assay with MDA-MB-435 it was 13.9 µM (inactive); in the assay on HOP-92, 5.92 µM (inactive); in the assay with SK-MEL-2, 16.4 µM (inactive); in the assay on UACC-257, 9.71 µM (inactive); in the assay with UACC-62 it was 14.1 µM (inactive). In addition, the GI50 in the assay with RXF 393 was 4.68 µM (inactive).
With `Nc1ccc2[nH]c(C(=O)N3CC(CCl)c4c3cc(N)c3ccccc43)cc2c1` (stereo unspecified), the GI50 in the assay with HCT-116 was < 0.01 µM (active); in the assay on COLO 205, 0.0101 µM (active); in the assay on SK-MEL-28, 0.013 µM (active); in the assay with SW-620, < 0.01 µM (active); with HCT-15 it was < 0.01 µM; in the assay on SNB-19 it was < 0.0138 µM (active). Moreover, the GI50 is < 0.01 µM (active) with ACHN; < 0.01 µM (active) in the assay with PC-3; 0.0166 µM (active) in the assay with OVCAR-3; < 0.01 µM (active) with EKVX; < 0.01 µM (active) with U-251; < 0.01 µM (active) in the assay with K562. Moreover, the GI50 in the assay with SF-268 was < 0.01 µM (active); in the assay with MDA-MB-435, 0.011 µM (active); in the assay with HOP-92 it was 0.0115 µM (active); in the assay with SK-MEL-2, < 0.01 µM (active); with UACC-257, 0.0142 µM (active); with UACC-62, < 0.01 µM (active). Also, in the assay on RXF 393, the GI50 was < 0.01 µM (active).

A word on the GI50: it is the concentration at which growth is held to half of that of the control.
